# Patent publication US20050256179A1, “Selective pharmacologic inhibition of protein trafficking and related methods of treating human diseases” (priority 2003, published 2005)
# Tests used:
# nicastrin = test: Nicastrin expression/maturation by Western blotting; assay type: cell-based
# Method: The culture medium was removed by vacuuming (for attached cells) or by low speed centrifugation (for suspension cells) for 5-7 minutes at room temperature. The cells were wasedh twith PBS, spun at 1200 rpm and the cell pellets were kept on ice. 300 μl/2.0×10^7 cells of ice cold lysis buffer was added with freshly added protease inhibitors. Cell pellets were gently resuspended and incubated on ice for at least 30 min, vortexed a few times during incubation. Cell lysate was spun at 14,000 rpm for 2-5 min at 4° C. The supernatant was transferred to a new microfuge tube and the pellet was discarded. An aliquot of sample was mixed with an equal volume of 2× sample buffer (InVitrogen), and stored at −80° C. Protein concentration was determined by using “BCA protein assay reagent kit” from Pierce.
# Protein samples (in sample buffer) were boiled for 1-3 minutes and put on ice. Same amount of protein were loaded on the NuPage gel (InVitrogen). […]
# To further examine the putative protein trafficking effects of AVP 893, other proteins in this pathway were tested in vitro in B16 and other cell lines. […] Other cell lines were tested for their expression of GS28 and nicastrin and found to respond similarly to drug, although quantitative differences were evident. […]
# Mannosidase II = Mannosidase II immunocytochemistry; assay type: cell-based
# Method: GS15, GS28, GPP130, and Mannosidase II, sparing the golgi structural protein GM-130 and having little effect on the Rab GTPase Rab6. Furthermore, these affects were most pronounced following overnight (16-20 hr) incubations with AVP 893, although some affects at early time points were seen. These conclusions were drawn from the western blot analysis (FIG. 29), as well as from the immunocytochemical studies (FIGS. 30-31).
# Additional evidence that AVP 893 has unique activity against resident golgi proteins (e.g. Mannosidase II), was found using both shorter durations of drug exposure and immunocytochemistry instead of western blot analysis (FIG. 43).
# GS28 mRNA = GS28 mRNA by RT-PCR in human PBL; assay type: cell-based; details: 3 to 16 hours following addition of drug
# Method: Human buffy coats were purchased from the San Diego Blood Bank. Buffy Coat was purified of red blood cells using Histopaque-1077 following Sigma Diagnostic protocol. Lymphocytes (20 million) were then cultured in 75 cm2 flasks in cDMEM (+/−stimulus & AVP 893) for either 4 or 24 hrs. Cells were harvested and reconstituted in a Guanidine/Phenol solution essentially as described by Maniatis. The aqueous layer was removed and washed with Guanidine solution and finally 70% EtOH. RNA purity was checked by spectrophotometer. RT-PCR (36 cycles) was performed following the RT-PCR One-Step protocol (Qiagen). Similar results were obtained when testing mRNA samples obtained from other cell sources (not shown).
# HSV-2 = test: Spread of HSV-2 in infected cultures (glycoprotein E labeling); assay type: cell-based; details: 300 ng/ml applied 16 hr prior to virus inoculation
# Method: The effect of AVP 893 on the spread of viral infection was further investigated. AVP 893 (at 300 ng/ml) was applied 16 hr prior to virus inoculation. Time points shown in FIG. 45 represent the hours after virus inoculation. […] In addition to the immunocytochemistry work shown in FIG. 45, extensive in vitro plaque assays were performed on HSV-1 and -2, as well as other families of virus that use the golgi in their life cycle (see Table 2).
# We determined whether viral particles (as visualized in FIG. 45 by labeling HSV-2 glycoprotein E) spread beyond the initial site of infection in the presence of AVP 893. HSV-2-infected cultures were treated with AVP 893. […] Other HSV proteins including gB, gD, and the capsid protein ICP5 were also examined with similar results (data not shown). […] Furthermore, AVP 893 didn't appear to stop the initial infection of the culture, only the subsequent spread of the virus.
# HSV = test: Guinea pig topical HSV model; assay type: in vivo; details: data not shown
# Method: Representative viruses from families likely to utilize the golgi were tested. […] (data not shown).
# [1] = tested on: PC12 pheochromocytoma cells; test: Norepinephrine release and dopamine re-uptake in PC12 cells; assay type: cell-based; details: not shown
# Excerpt: The proposed mechanism of the AVP compounds on intracellular protein transit also allows certain predictions as to other effects and non-effects that these compounds might share. For example, inhibition of vesicle fusion or budding between the ER and golgi should not affect exocytosis as would be expected of a post-golgi active compound such as Monensin. AVP 893 has minimal effects on the expression of proteins involved in exocytosis, particularly VAMP, SNAP23 (non-neuronal cells), and SNAP25 (neuronal cells).
smiles,measurement,setting,value
O=C(Nc1ccc(-c2nc3cc(NC(=O)C4CCCCC4)ccc3[nH]2)cc1)C1CCCCC1 [AVP 893],IC50 for mature nicastrin expression,"nicastrin; 3T3 cells, overnight",10 and 100 ng/ml
same,levels of mature nicastrin,nicastrin; 3T3 fibroblast cell line,virtually eliminated
same,Mannosidase II staining pattern,"Mannosidase II; 1 hr of treatment, immunocytochemistry",no apparent effect
same,Mannosidase II in golgi,Mannosidase II; after 4 hrs of application,little to no discernible amount of the enzyme remaining after 4 hrs
same,level of GS28 mRNA,GS28 mRNA,did not affect the level of GS28 mRNA
same,spread of HSV-2 beyond the initial site of infection,HSV-2,blocked the spread of HSV-2 virus particles
same,viral activity in vivo,HSV,may inhibit viral activity in vivo
same,"release of norepinephrine, re-uptake of dopamine",[1],does not affect the release of norepinephrine or the re-uptake of dopamine
